The values below come from article PMC9746714, “Aspartate α-decarboxylase a new therapeutic target in the fight against Helicobacter pylori infection” (Frontiers in Microbiology, 2022).

Values after ≈ are worked out from the molar mass of the structure shown.

For assay [1], the target named is T1, Aspartate α-decarboxylase (ADC) (Helicobacter pylori, UniProt P56065).
T1 construct: gene panD; recombinant 6xHis-tagged ADC, 117 amino acids for ADC plus six for the His-tag (from H. pylori ATCC 43504)
In words: HPLC measurement of β-alanine produced from L-aspartate by purified 6xHis-tagged ADC. Format: biochemical.

Assay [2] concerns T2, Acinetobacter baumannii ATCC 19606.
T2 construct: ATCC 19606
Put plainly: microbe, parasite or virus in culture. Also noted: species or system bacterial species; broth microdilution MIC in Mueller-Hinton broth, visible growth. The note with it: Acinetobacter baumannii, ATCC19606, 20 h. As to the method: (§1) Assessment of the spectrum of activity of malonic acid The spectrum of activity of malonic acid was assessed by determining malonic acid MIC against eight other pathogenic bacterial species (A. baumannii ATCC 19606, B. cenocepacia ATCC BAA-245, E. coli ATCC 25922, E. faecium ATCC 27270, E. faecalis ATCC 19433, K. pneumoniae ATCC 10031, P. aeruginosa ATCC 27856, and S. aureus ATCC 25923) using broth microdilution method, according to the CLSI guidelines ([CLSI, 2018]). Malonic acid solution was serially diluted in Muller-Hinton broth (100 μL) to get concentrations ranging from 6 to 0.19 mg/mL. The inoculum was prepared to be equivalent to 0.5 McFarland standard (containing approximately 1–2 × 10^8 CFU/mL with most species) and was further diluted 1:10 (to get a concentration of 10^7 CFU/mL). 10 μL of the diluted inoculum was transferred to each well to contain 5 × 10^5 CFU/mL. Plates were incubated at 37°C for 20 h. […] The experiment was carried out in triplicates. Malonic acid MIC was determined against other pathogenic species (A. baumannii ATCC 19606, B. cenocepacia ATCC BAA-245, E. coli ATCC 25922, E. faecium ATCC 27270, E. faecalis ATCC 19433, K. pneumoniae ATCC 10031, P. aeruginosa ATCC 27856, and S. aureus ATCC 25923) by the broth microdilution method.

In assay [3] the test system is T3, Burkholderia cepacia ATCC BAA-245.
T3 construct: ATCC BAA-245
Put plainly: microbe, parasite or virus in culture. Also noted: species or system bacterial species; broth microdilution MIC in Mueller-Hinton broth, visible growth. The note with it: Burkholderia cepacia, ATCCBAA245, 20 h. As to the method:
as §1

Assay [4] relates to T4, Enterococcus faecalis ATCC 19433.
T4 construct: ATCC 19433
Put plainly: microbe, parasite or virus in culture. Set-up: species or system bacterial species; broth microdilution MIC in Mueller-Hinton broth, visible growth. The note with it: Enterococcus faecalis, ATCC19433, 20 h. As to the method: as §1

Assay [5] deals with T5, Enterococcus faecium ATCC 27270.
T5 construct: ATCC 27270
In words: microbe, parasite or virus in culture. Also noted: species or system bacterial species; broth microdilution MIC in Mueller-Hinton broth, visible growth. The note with it: Enterococcus faecium, ATCC27270, 20 h. The method, then:
as §1

The test system of assay [6] is T6, Escherichia coli ATCC 25922.
T6 construct: ATCC 25922
In words: microbe, parasite or virus in culture. Set-up: species or system bacterial species; broth microdilution MIC in Mueller-Hinton broth, visible growth. The note with it: Escherichia coli, ATCC25922, 20 h. The method, then:
as §1

Assay [7] deals with T7, Klebsiella pneumoniae ATCC 10031.
T7 construct: ATCC 10031
Put plainly: microbe, parasite or virus in culture. The note with it: Klebsiella pneumoniae, ATCC10031, 20 h. Also noted: species or system bacterial species; broth microdilution MIC in Mueller-Hinton broth, visible growth. As to the method: as §1

The subject of assay [8] is T8, Pseudomonas aeruginosa ATCC 27856.
T8 construct: ATCC 27856
Put plainly: microbe, parasite or virus in culture. The note with it: Pseudomonas aeruginosa, ATCC27856, 20 h. Set-up: species or system bacterial species; broth microdilution MIC in Mueller-Hinton broth, visible growth. The method, then:
as §1

Assay [9] concerns T9, Staphylococcus aureus ATCC 25923.
T9 construct: ATCC 25923
In words: microbe, parasite or virus in culture. The note with it: Staphylococcus aureus, ATCC25923, 20 h. Also noted: species or system bacterial species; broth microdilution MIC in Mueller-Hinton broth, visible growth. As to the method: as §1

Assay [10] has as its system T10, Helicobacter pylori ATCC 43504.
T10 construct: ATCC 43504
Put plainly: microbe, parasite or virus in culture. Also noted: MIC against H. pylori by agar dilution and broth microdilution, microaerophilic, visible growth. The note with it: ATCC43504, 72 h. The method, then:
(§2) The MIC of malonic acid was determined by agar dilution and broth microdilution methods, against H. pylori ATCC 43504 and H. pylori HPM001 strains. Malonic acid (Loba, India) was dissolved in distilled water to the desired concentration, sterilized by a […] syringe filter, and used within 72 h of preparation. Inocula for MIC testing were prepared by suspending colonies in saline to reach an optical density equivalent to 2.0 McFarland turbidity standard (approximately 1×10^7 to 1×10^8 CFU/mL) ([CLSI, 2015]). The culture media used in MIC determination were freshly prepared, according to the manufacturer’s instruction, and supplemented with 1% yeast extract (LabM, United Kingdom) to enhance bacterial growth ([Walsh and Moran, 1997]). MIC determination by broth microdilution method was carried out in 96-well round-bottom micro-titre plates. […] The MIC of malonic acid was determined by agar dilution and broth microdilution methods against H. pylori ATCC 43504 and H. pylori HPM001. […] No significant difference was recorded between the MIC of malonic acid against H. pylori ATCC 43504 and H. pylori HPM001 using either the agar (p = 0.8529) or the broth microdilution methods (p = 0.8784). There was also no significant difference between the mean MIC of malonic acid recorded against the tested strains by both methods (p = 0.54).

Assay [11] has as its system T11, Helicobacter pylori HPM001.
T11 construct: HPM001
Put plainly: microbe, parasite or virus in culture. Also noted: MIC against H. pylori by agar dilution and broth microdilution, microaerophilic, visible growth. The note with it: HPM001, 72 h. As to the method:
as §2

T1 sequence (P56065 1-24): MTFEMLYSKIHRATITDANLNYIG
T1 sequence (P56065 25-117): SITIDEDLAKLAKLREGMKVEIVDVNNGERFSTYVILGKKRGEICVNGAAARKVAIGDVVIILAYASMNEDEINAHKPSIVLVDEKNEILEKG

In the case of `NC(CC(=O)O)C(=O)O` [L-aspartate, 2-amino-butanedioic acid], in assay [1], the “HPLC measurement of β-alanine produced from L-aspartate by purified 6xHis-tagged” value is “assaying β-alanine, the product of the enzymatic action of recombinant H. pylori 6x-His-tagged ADC on aspartate”.

As for `O=C(O)CC(=O)O` [MA, propanedioic acid], the MIC in assay [2] stood at 750 µg/mL (≈ 7.21 mM); in assay [3], 1000 ± 350 µg/mL (≈ 9.61 mM); in [4], 625 ± 180 µg/mL (≈ 6.01 mM); in assay [5], 1000 ± 350 µg/mL (≈ 9.61 mM); in assay [6] it was 750 µg/mL (≈ 7.21 mM); in [7] it was 1250 ± 350 µg/mL (≈ 12 mM). In addition, the MIC in assay [8] was determined as 625 ± 180 µg/mL (≈ 6.01 mM); in assay [9], 750 µg/mL (≈ 7.21 mM); in [10] it was 625 ± 180 µg/mL (≈ 6.01 mM); in assay [11], 750 µg/mL (≈ 7.21 mM).
